From ChEMBL document CHEMBL1129112, “Antioxidant and cholesterol lowering properties of 2,6-DI-t-butyl-4-[(dimethylphenylsilyl)methyloxy]phenol and derivatives: A new class of anti-atherogenic compounds” (1996)

Columns and labels:
Format in all cases: functional
Oryctolagus cuniculus [1] = experiment: High density lipoprotein (HDL) percent control of cholesterol after administration in rabbits.; design: concentration or dose not given beside the values
Oryctolagus cuniculus [2] = experiment: Low density lipoprotein (LDL) percent control of cholesterol after administration in rabbits.; design: concentration or dose not given beside the values
Oryctolagus cuniculus [3] = species: Oryctolagus cuniculus; experiment: Total cholesterol present in New Zealand white rabbits fed with control diet (100 g/day) for seven days
Oryctolagus cuniculus [4] = experiment: Total percent control of cholesterol after administration in rabbits.; design: concentration or dose not given beside the values
Oryctolagus cuniculus [5] = species: Oryctolagus cuniculus; experiment: The compound was tested for antioxidant activity against serum thiobarbituric acid relative substances (TBARS),
Oryctolagus cuniculus [6] = species: Oryctolagus cuniculus; experiment: Tested for antioxidant activity against serum thiobarbituric acid relative substances (TBARS),

| Structure (SMILES) | Control (Oryctolagus cuniculus [1]) [%] | Control (Oryctolagus cuniculus [2]) [%] | Activity (Oryctolagus cuniculus [3]) [mg/dL] | Control (Oryctolagus cuniculus [4]) [%] | Control (Oryctolagus cuniculus [5]) [%] | Control (Oryctolagus cuniculus [6]) [%] |
| --- | --- | --- | --- | --- | --- | --- |
| COc1ccccc1[Si](C)(C)COc1cc(C(C)(C)C)c(O)c(C(C)(C)C)c1 | 217 | 61 | 235 | 77 | 75 |  |
| CC(C)(C)c1cc(OC[Si](C)(C)c2ccccc2)cc(C(C)(C)C)c1O | 81 | 69 | 165 | 72 | 28 |  |
| CC(C)(C)c1cc(OC[Si](C)(C)c2ccc(Cl)cc2)cc(C(C)(C)C)c1O | 109 | 89 | 247 | 87 | 57 |  |
| CC(C)(C)c1cc(SC[Si](C)(C)c2ccccc2)cc(C(C)(C)C)c1O | 75 | 42 | 119 | 52 |  | 17 |
| COc1ccc([Si](C)(C)COc2cc(C(C)(C)C)c(O)c(C(C)(C)C)c2)cc1 | 123 | 66 | 153 | 54 | 60 |  |
